Test results published in patent publication US12018021B2 (UCB Biopharma SRL, priority 2018, dated 2024).

Molecular target: IgE-Tb / FcεRIα-Y131A-AF488 (Homo sapiens, UniProt P01854)
Assay: IgE-Tb / FcεRIα-Y131A-AF488 FRET assay (protocol for examples 1 to 233)
Format: binding
Conditions: examples 1 to 233: 5 nM IgE-Tb, 25 nM FcεRIα-Y131A-AF488, incubated 2 hours at room temperature; read-out: Y131A FRET IC50 range
Method in brief: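 Compounds (top final concentration usually 10 μM, 3-fold, 10 points, 2% DMSO) incubated 2 h at room temperature with IgE-Tb (5 nM) and FcεRIα-Y131A-AF488 (25 nM). Background from 200 nM unlabelled receptor subtracted; FRET ratio 520/495 nm after 330 nm excitation gave percent inhibition, fitted four-parameter for IC50.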

Sequence of IgE-Tb / FcεRIα-Y131A-AF488 (P01854 1-427 limits assumed, stated change not applied): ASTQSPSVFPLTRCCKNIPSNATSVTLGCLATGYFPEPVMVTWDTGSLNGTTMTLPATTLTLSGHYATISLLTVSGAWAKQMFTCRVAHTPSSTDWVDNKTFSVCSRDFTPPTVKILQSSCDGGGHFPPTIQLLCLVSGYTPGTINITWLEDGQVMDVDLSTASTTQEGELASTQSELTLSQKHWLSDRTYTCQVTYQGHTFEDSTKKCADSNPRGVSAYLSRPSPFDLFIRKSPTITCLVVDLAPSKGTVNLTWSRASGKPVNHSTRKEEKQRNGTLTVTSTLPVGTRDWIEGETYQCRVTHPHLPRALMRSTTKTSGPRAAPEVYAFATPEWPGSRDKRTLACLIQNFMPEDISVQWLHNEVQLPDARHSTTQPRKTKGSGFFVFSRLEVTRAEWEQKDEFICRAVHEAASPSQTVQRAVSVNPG

Compound	IC50
Cc1cc(Nc2nncn2[C@H]2CCc3sc(NC(=O)C4CC4)c(C(=O)NCC4CC4)c3C2)n(C2CC2)n1 [Example 226, (5S)-2-(cyclopropanecarbonylamino)-N-(cyclopropylmethyl)-5-[3-[(2-cyclopropyl-5-methyl-pyrazol-3-yl)amino]-1,2,4-triazol-4-yl]-4,5,6,7-tetrahydrobenzothiophene-3-carboxamide]	< 1 µM
COc1nn(C)cc1Nc1nncn1[C@H]1CCc2sc(NC(=O)C3CC3)c(C(=O)NCC3CC3)c2C1 [Example 227, (5S)-2-(cyclopropanecarbonylamino)-N-(cyclopropylmethyl)-5-[3-[(3-methoxy-1-methy-pyrazol-4-yl)amino]-1,2,4-triazol-4-yl]-4,5,6,7-tetrahydrobenzothiophene-3-carboxamide]	< 1 µM
CCc1cc(Nc2nncn2[C@H]2CCc3sc(NC(=O)C4CC4)c(C(=O)NCC4CC4)c3C2)n(C)n1 [Example 228, (5S)-2-(cyclopropanecarbonylamino)-N-(cyclopropylmethyl)-5-[3-[(5-ethyl-2-methyl-pyrazol-3-yl)amino]-1,2,4-triazol-4-yl]-4,5,6,7-tetrahydrobenzothiophene-3-carboxamide]	< 1 µM
Cn1nc(C(F)F)cc1Nc1nncn1[C@H]1CCc2sc(NC(=O)C3CC3)c(C(=O)NCC3CC3)c2C1 [Example 229, (5S)-2-(Cyclopropanecarbonylamino)-N-(cyclopropylmethyl)-5-[3-[[5-(difluoromethyl)-2-methyl-pyrazol-3-yl]amino]-1,2,4-triazol-4-yl]-4,5,6,7-tetrahydrobenzothiophene-3-carboxamide]	< 1 µM
Cc1cn(C)nc1Nc1nncn1[C@H]1CCc2sc(NC(=O)C3CC3)c(C(=O)NCC3CC3)c2C1 [Example 230, (5S)-2-(Cyclopropanecarbonylamino)-N-(cyclopropylmethyl)-5-[3-[(1,4-dimethylpyrazol-3-yl)amino]-1,2,4-triazol-4-yl]-4,5,6,7-tetrahydrobenzothiophene-3-carboxamide]	< 1 µM
COC(=O)c1cc(Nc2nncn2[C@H]2CCc3sc(NC(=O)C4CC4)c(C(=O)NCC4CC4)c3C2)n(C)n1 [Example 231, Methyl 5-[[4-[(5S)-2-(cyclopropanecarbonylamino)-3-(cyclopropylmethylcarbamoyl)-4,5,6,7-tetrahydrobenzothiophen-5-yl]-1,2,4-triazol-3-yl]amino]-1-methyl-pyrazole-3-carboxylate]	< 1 µM
Cn1nc(C(F)(F)F)cc1Nc1nccn1[C@H]1CCc2sc(NC(=O)C3CC3)c(C(=O)NCC3CC3)c2C1 [Example 232, (5S)-2-(Cyclopropanecarbonylamino)-N-(cyclopropylmethyl)-5-[2-[[2-methyl-5-(trifluoromethyl)pyrazol-3-yl]amino]imidazol-1-yl]-4,5,6,7-tetrahydrobenzothiophene-3-carboxamide]	< 1 µM
Cn1nc(C(=O)O)cc1Nc1nncn1[C@H]1CCc2sc(NC(=O)C3CC3)c(C(=O)NCC3CC3)c2C1 [Example 233, 5-[[4-[(5S)-2-(Cyclopropanecarbonylamino)-3-(cyclopropylmethylcarbamoyl)-4,5,6,7-tetrahydrobenzothiophen-5-yl]-1,2,4-triazol-3-yl]amino]-1-methyl-pyrazole-3-carboxylic acid]	< 1 µM
